In patent publication US12390435B2, “Electrophiles and electrophile pro-drugs as RAD51 inhibitors” (University of Pittsburgh—Of the Commonwealth System of …, priority 2018, dated 2025):

Assays:
RelA = molecular target: T1, RelA (Homo sapiens, UniProt Q04206); assay: Biotinylated NO2-FA protein alkylation pull-down and proteomics; format: binding; details: recombinant RelA protein
T1 construct: endogenous in cells; host or cells: MDA-MB-231, MDA-MB-468
Experimental: After 2 hr cells were harvested in lysis buffer containing 1% Triton X, 10% glycerol, 150 mM NaCl, 10 mM HEPES, 1 mM EDTA, 1 mM EGTA, and supplemented with a mixture of protease and phosphatase inhibitors (Roche Applied Science). Total cell lysates (0.5-1 mg) were mixed and incubated with streptavidin agarose beads (Sigma-Aldrich) at 4° C., overnight. Beads were washed three times using lysis buffer. After SDS-PAGE, immunoblotting was performed using anti-RelA mouse monoclonal antibody (Santa Cruz Biotechnology) or anti-IKKβ rabbit polyclonal antibody (Cell Signaling). Proteomics analysis for the alkylation of RelA by NO2-OA was also conducted using recombinant RelA protein and LC-MS/MS analysis.

Hs578T cells = assay: CellTiter-Glo relative growth (luminescent ATP); format: cell-based
Experimental: (§1) HEK 293T, MDA-MB-231, MDA-MB-468, Hs578T and BT-549 cells (American Type Culture Collection) were cultured at 37° C. with 5% CO2 in Dulbecco's modified Eagle's medium containing (DMEM) (Gibco) supplemented with 5% FBS (HyClone), 100 units/ml penicillin, […] streptomycin (Gibco), non-essential amino acids (Gibco) and 2 mM 1-glutamine (Gibco). Doxorubicin (Selleckchem), cisplatin (Sigma) or olaparib (Selleckchem) were dissolved in DMSO or DMF (cisplatin). […] Pure NO2-OA was diluted in DMSO and added to cells after solvation in assay media. Relative cell numbers were compared by measuring the luminescent signal generated by ATP using the CellTiter-Glo (Promega) assay. Cells were plated in a 96-well plate at 5,000 (MDA-MB-231) or 6,600 (BT549 or Hs578T) cells per well.
(§2) Data represent the mean±SEM from 3 independent experiments unless otherwise noted. A p value<0.05 was considered statistically significant. Non-linear curves were generated in GraphPad Prism 7.0 (GraphPad Software, La Jolla, CA, USA) for statistical analysis. EC50 values and standard error were calculated from three independent experiments utilizing a non-linear dose response variable slope model. Significance was tested by one-way ANOVA for multiple groups with Tukey posttest or by t-test when groups were less than three. RAD51 foci number was analyzed with ImageJ. Nuclear boundaries were individually identified in more than 50 cells per treatment group in three independent experiments.
(§3) The growth of BT-549 cells was not affected. […] MDA-MB-231 cells were plated in a 96 well plate and treated with talazoparib (0.01-75 μM) plus OA-NO2 or NDA-NO2 (0.2-12 μM) daily for 3 days. Growth inhibition (relative cell numbers) of MDA-MB-231 cells was determined by luminescent detection of ATP (CellTiter-Glo) (FIG. 1K).

MDA-MB-231 cells = assay: CellTiter-Glo relative growth (luminescent ATP); format: cell-based
Experimental: as §1, §2, §3

BT-549 cells = assay: CellTiter-Glo relative growth (luminescent ATP); format: cell-based
Experimental: as §1, §2, §3

[1] = cisplatin 72 h plus daily 2 μM NO2-OA
[2] = doxorubicin 72 h plus daily 2 μM NO2-OA
[3] = olaparib 72 h plus daily 2 μM NO2-OA

T1 sequence (Q04206 whole entry): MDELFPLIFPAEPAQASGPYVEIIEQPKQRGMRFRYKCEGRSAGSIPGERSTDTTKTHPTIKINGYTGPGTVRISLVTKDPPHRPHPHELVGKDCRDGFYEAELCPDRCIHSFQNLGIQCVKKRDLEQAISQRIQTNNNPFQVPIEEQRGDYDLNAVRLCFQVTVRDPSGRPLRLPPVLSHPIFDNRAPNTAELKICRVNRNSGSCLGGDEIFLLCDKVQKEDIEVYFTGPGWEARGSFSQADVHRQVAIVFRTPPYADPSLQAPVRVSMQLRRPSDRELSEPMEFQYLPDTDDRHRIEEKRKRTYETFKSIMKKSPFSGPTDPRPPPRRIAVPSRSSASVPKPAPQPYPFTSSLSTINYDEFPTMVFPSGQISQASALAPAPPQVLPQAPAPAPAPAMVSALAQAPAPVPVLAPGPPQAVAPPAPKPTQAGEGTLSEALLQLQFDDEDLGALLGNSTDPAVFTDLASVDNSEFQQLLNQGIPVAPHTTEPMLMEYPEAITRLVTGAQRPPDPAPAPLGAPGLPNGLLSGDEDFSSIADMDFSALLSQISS

CCCCCCCCC(=CCCCCCCCC(=O)O)[N+](=O)[O-] [NO2-OA, 10-nitro-octadec-9-enoic acid]
RelA Cys105 alkylation (LC-MS/MS proteomics) (RelA): alkylated
EC50 (Hs578T cells; Homo sapiens, Hs-578T, 72 h, read-out: EC50 for growth inhibition): 1.98 ± 0.52 µM
increased growth inhibition of cisplatin (Hs578T cells; [1]): 3 fold
enhanced growth inhibition of doxorubicin (Hs578T cells; [2]): 5 fold
enhanced growth inhibition of olaparib (Hs578T cells; [3]): 17 fold
Growth inhibition (MDA-MB-231 cells; 12 or 6.0 μM plus 0.01-75 μM talazoparib, daily for 3 days): ~100%
EC50 for growth inhibition, compared between compounds (MDA-MB-231 cells; ATP Celltiter Glo proliferation assay, n=3): higher EC50
EC50 (MDA-MB-231 cells; Homo sapiens, MDA-MB-231, 72 h, read-out: EC50 for growth inhibition): 3.66 ± 0.14 µM
increased growth inhibition of cisplatin (MDA-MB-231 cells; [1]): 6 fold
enhanced growth inhibition of doxorubicin (MDA-MB-231 cells; [2]): 7 fold
enhanced growth inhibition of olaparib (MDA-MB-231 cells; [3]): 5 fold
Combination index (CI), Chou-Talalay (MDA-MB-231 cells; with talazoparib (0.01-75 μM), 0.2-12 μM, daily 3 days, CI<1 is synergistic): < 1
EC50 (BT-549 cells; Homo sapiens, BT-549, 72 h, read-out: EC50 for growth inhibition): 3.78 ± 0.48 µM
growth inhibition with cisplatin, suppressed (BT-549 cells; cisplatin 72 h plus daily 2 μM NO2-OA, printed as suppressed): 1.4 fold
enhanced growth inhibition of doxorubicin (BT-549 cells; [2]): not affected
enhanced growth inhibition of olaparib (BT-549 cells; [3]): 3 fold
